# Experimental data as given in patent US11208412B2 (DAEGU-GYEONGBUK MEDICAL INNOVATION FOUNDATION, priority 2017, dated 2021).
# What was measured:
# Assay in all cases: Kinase selectivity, DiscoverX scanMAX Kinase assay panel (% control)
# Type in all cases: binding
# [1] = biological target: T1, kinases of the scanMAX Kinase assay panel (Homo sapiens, UniProt P04626); conditions: ERBB2; 1 uM
# T1 construct: purchased DiscoverX Co. (contract measurement) scanMAX Kinase assay panel
# Outline: (§1)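 Read-out is % control, normalised so a positive-control compound sits at 0% and DMSO at 100%: (test − positive)/(negative − positive)×100. Each kinase received the compound at 1 uM in DMSO. A value below 35% counts as activity.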
# [2] = biological target: T2, kinases of the scanMAX Kinase assay panel (Homo sapiens, UniProt P15056); conditions: BRAF; 1 uM
# T2 construct: purchased DiscoverX Co. (contract measurement) scanMAX Kinase assay panel
# T2 sequence (P15056 whole entry): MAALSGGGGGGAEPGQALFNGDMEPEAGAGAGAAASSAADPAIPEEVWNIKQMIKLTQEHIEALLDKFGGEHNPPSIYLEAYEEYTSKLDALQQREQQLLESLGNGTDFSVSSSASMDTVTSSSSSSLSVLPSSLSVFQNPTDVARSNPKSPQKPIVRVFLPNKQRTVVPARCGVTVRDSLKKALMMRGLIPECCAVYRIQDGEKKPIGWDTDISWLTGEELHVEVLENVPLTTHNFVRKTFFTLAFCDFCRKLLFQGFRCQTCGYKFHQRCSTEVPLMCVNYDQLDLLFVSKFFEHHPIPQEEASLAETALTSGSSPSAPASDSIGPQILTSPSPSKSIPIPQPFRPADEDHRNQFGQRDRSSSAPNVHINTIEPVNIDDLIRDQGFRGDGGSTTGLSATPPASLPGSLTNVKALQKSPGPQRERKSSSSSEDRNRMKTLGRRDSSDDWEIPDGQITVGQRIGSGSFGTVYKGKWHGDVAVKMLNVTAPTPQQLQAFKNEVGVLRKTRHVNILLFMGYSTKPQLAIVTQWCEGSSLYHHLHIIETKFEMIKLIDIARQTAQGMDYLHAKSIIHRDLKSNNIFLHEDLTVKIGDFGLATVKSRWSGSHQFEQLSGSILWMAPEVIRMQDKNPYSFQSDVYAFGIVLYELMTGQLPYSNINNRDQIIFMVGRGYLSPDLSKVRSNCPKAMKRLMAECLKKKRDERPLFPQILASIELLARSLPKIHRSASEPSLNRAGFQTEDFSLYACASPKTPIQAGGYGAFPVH
# Outline: as §1
# [3] = biological target: T3, kinases of the scanMAX Kinase assay panel (Homo sapiens, UniProt P21127); conditions: CDC2L1; 1 uM
# T3 construct: purchased DiscoverX Co. (contract measurement) scanMAX Kinase assay panel
# T3 sequence (P21127 whole entry): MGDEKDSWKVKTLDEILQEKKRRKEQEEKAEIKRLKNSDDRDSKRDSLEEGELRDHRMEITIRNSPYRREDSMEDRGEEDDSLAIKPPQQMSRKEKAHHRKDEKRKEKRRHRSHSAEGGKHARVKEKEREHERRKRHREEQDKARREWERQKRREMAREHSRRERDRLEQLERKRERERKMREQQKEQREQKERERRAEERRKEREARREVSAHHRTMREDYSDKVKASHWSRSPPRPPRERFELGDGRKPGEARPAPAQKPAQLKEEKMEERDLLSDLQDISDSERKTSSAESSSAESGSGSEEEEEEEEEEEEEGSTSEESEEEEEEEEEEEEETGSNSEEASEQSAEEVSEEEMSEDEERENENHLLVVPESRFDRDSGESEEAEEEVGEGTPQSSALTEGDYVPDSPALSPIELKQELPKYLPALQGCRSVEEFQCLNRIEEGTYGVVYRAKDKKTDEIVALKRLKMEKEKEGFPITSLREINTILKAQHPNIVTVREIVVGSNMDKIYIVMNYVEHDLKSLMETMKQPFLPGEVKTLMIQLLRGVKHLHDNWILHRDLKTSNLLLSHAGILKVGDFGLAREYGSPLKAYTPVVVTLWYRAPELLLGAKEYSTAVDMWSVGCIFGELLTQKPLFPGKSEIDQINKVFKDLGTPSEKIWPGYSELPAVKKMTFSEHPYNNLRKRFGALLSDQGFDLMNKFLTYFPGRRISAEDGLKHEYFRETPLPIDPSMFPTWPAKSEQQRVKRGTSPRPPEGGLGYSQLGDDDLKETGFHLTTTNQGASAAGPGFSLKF
# Outline: as §1
# [4] = biological target: T4, kinases of the scanMAX Kinase assay panel (Homo sapiens, UniProt P29322); conditions: EPHA8; 1 uM
# T4 construct: purchased DiscoverX Co. (contract measurement) scanMAX Kinase assay panel
# T4 sequence (P29322 28-1005): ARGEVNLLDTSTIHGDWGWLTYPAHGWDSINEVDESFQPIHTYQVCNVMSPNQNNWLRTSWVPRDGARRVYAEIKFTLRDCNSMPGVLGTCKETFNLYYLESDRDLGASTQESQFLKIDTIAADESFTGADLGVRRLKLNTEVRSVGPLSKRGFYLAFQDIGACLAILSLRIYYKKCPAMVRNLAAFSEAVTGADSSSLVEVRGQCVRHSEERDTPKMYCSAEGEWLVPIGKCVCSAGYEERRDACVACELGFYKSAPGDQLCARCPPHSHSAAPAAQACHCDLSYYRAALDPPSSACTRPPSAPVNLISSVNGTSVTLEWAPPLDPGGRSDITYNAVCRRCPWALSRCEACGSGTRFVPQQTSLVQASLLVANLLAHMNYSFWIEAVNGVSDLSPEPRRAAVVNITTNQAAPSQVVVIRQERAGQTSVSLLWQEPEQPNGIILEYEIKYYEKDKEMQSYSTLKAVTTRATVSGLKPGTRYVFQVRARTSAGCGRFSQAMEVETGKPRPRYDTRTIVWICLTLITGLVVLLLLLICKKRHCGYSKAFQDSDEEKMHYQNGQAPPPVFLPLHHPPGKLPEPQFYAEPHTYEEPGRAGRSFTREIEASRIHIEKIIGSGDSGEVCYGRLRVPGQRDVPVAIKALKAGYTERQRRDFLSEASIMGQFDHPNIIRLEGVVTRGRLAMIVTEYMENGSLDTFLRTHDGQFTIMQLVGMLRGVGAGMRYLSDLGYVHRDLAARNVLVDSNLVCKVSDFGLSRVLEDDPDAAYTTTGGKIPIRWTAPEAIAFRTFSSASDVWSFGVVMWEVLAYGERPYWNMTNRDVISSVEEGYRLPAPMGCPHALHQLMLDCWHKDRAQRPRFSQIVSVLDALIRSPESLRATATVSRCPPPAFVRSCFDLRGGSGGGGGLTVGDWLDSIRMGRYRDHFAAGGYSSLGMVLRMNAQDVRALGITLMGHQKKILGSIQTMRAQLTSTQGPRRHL
# Outline: as §1
# [5] = biological target: T5, kinases of the scanMAX Kinase assay panel (Homo sapiens, UniProt P42345); conditions: MTOR; 1 uM
# T5 construct: purchased DiscoverX Co. (contract measurement) scanMAX Kinase assay panel
# Outline: as §1
# [6] = biological target: T6, kinases of the scanMAX Kinase assay panel (Homo sapiens, UniProt P68400); conditions: CSNK2A1; 1 uM
# T6 construct: purchased DiscoverX Co. (contract measurement) scanMAX Kinase assay panel
# T6 sequence (P68400 whole entry): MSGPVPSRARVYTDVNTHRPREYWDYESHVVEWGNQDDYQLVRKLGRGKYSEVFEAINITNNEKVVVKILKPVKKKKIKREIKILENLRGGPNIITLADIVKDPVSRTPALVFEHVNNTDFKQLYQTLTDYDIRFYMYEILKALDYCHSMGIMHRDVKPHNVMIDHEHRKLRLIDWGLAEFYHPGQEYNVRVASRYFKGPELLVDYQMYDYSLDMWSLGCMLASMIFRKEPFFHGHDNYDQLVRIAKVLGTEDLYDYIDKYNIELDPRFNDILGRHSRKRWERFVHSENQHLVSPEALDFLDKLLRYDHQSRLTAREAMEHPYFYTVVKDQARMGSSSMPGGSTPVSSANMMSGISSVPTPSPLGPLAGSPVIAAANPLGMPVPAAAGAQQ
# Outline: as §1
# [7] = biological target: T7, kinases of the scanMAX Kinase assay panel (Homo sapiens, UniProt Q8N752); conditions: CSNK1A1L; 1 uM
# T7 construct: purchased DiscoverX Co. (contract measurement) scanMAX Kinase assay panel
# T7 sequence (Q8N752 1-337): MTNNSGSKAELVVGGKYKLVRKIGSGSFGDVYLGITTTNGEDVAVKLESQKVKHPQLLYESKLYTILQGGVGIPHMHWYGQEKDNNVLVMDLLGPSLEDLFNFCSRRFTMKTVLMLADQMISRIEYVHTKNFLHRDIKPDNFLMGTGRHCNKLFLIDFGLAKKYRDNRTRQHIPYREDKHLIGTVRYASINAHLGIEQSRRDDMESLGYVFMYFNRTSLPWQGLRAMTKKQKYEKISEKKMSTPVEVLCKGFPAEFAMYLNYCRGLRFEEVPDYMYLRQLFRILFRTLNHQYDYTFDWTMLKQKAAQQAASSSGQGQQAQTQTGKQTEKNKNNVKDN
# Outline: as §1
# [8] = biological target: T8, kinases of the scanMAX Kinase assay panel (Homo sapiens, UniProt Q9H093); conditions: kinase SNARK; 1 uM in DMSO
# T8 construct: purchased DiscoverX Co. (contract measurement) scanMAX Kinase assay panel
# T8 sequence (Q9H093 1-628): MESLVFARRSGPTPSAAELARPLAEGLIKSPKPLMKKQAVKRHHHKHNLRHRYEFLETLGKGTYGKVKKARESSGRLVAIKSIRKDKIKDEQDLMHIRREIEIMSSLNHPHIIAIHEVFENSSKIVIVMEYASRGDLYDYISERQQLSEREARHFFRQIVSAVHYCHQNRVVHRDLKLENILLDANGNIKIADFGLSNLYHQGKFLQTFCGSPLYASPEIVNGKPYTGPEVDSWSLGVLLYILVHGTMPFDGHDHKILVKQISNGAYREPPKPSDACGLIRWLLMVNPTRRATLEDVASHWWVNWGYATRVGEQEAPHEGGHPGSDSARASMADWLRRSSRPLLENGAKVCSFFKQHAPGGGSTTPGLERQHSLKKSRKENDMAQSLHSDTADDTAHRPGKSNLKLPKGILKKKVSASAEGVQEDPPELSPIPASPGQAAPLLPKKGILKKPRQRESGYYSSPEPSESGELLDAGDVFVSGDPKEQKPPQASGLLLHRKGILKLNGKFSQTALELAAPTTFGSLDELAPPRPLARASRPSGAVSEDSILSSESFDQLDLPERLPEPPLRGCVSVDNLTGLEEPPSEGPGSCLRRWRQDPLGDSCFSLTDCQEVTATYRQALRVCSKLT
# Outline: as §1
# [9] = biological target: T9, kinases of the scanMAX Kinase assay panel (Homo sapiens, UniProt Q9NYY3); conditions: PLK2; 1 uM
# T9 construct: purchased DiscoverX Co. (contract measurement) scanMAX Kinase assay panel
# T9 sequence (Q9NYY3 whole entry): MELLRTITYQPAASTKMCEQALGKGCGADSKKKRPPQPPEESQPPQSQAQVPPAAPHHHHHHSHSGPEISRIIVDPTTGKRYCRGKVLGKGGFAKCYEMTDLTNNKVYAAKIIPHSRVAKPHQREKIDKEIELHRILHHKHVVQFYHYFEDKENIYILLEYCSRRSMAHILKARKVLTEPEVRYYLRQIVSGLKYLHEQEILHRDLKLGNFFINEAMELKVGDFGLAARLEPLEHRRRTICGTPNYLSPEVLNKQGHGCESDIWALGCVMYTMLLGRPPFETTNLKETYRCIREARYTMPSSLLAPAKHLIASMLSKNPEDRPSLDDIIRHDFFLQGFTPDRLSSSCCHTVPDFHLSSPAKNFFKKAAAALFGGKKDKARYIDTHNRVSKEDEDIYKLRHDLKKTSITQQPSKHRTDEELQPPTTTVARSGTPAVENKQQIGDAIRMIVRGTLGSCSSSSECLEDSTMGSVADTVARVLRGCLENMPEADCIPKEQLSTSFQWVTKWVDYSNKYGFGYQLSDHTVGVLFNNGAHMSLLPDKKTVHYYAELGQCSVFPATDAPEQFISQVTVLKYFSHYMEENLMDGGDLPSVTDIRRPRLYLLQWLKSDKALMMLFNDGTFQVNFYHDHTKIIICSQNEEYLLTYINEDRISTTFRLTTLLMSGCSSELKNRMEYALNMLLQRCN
# Outline: as §1
# [10] = biological target: T10, kinases of the scanMAX Kinase assay panel (Homo sapiens, UniProt Q9P286); conditions: PAK7; 1 uM
# T10 construct: purchased DiscoverX Co. (contract measurement) scanMAX Kinase assay panel
# T10 sequence (Q9P286 whole entry): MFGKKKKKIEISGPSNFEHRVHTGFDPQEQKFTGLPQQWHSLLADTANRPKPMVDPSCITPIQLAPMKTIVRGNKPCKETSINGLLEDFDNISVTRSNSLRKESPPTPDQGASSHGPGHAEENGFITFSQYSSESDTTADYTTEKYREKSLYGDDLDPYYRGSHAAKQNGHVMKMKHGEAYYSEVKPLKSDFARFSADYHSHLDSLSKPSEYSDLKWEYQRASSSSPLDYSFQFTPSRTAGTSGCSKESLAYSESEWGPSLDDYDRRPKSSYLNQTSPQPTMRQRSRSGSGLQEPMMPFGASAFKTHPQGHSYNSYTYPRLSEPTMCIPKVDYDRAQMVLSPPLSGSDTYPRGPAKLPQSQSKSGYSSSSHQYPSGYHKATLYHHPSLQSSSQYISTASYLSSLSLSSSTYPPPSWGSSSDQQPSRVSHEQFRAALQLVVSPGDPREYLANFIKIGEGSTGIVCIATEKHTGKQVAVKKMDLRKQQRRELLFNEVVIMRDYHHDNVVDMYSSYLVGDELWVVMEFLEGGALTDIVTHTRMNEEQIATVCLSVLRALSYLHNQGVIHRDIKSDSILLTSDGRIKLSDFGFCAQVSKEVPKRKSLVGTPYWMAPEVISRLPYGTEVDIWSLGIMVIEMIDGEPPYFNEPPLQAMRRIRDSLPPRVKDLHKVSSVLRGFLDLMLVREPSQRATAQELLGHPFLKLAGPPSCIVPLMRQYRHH
# Outline: as §1
# T1 sequence (P04626 23-1255): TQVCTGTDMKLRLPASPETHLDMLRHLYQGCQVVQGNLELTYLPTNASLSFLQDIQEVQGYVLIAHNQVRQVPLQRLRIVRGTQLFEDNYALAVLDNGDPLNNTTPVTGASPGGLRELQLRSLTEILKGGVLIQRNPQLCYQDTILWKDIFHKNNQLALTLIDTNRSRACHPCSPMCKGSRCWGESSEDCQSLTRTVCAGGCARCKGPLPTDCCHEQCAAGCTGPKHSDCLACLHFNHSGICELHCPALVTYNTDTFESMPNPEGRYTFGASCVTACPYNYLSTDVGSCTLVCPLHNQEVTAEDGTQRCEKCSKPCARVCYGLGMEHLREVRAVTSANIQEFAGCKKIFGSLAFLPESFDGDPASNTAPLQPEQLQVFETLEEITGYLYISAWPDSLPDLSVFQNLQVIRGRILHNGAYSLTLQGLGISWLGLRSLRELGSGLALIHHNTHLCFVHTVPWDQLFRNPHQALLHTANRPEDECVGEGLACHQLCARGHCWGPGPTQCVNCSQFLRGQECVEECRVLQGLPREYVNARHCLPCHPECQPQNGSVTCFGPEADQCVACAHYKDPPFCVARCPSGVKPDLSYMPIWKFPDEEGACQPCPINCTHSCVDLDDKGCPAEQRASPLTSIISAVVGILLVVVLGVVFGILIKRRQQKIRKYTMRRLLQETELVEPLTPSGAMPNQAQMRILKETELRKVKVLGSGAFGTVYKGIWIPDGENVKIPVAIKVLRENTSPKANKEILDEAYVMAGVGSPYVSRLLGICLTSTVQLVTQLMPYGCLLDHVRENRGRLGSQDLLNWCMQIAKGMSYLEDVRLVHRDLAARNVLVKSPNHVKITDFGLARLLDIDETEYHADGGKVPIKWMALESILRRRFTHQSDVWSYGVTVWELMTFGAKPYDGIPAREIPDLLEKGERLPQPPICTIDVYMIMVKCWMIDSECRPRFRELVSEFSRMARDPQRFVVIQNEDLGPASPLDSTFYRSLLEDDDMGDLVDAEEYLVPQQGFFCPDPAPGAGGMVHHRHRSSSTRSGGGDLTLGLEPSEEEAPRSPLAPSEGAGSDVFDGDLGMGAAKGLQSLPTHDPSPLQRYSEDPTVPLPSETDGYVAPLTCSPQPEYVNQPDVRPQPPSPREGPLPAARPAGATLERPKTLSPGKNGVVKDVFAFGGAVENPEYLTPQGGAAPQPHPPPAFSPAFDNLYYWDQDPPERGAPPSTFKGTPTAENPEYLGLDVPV
structure (smiles),measurement,setting,value
"CNc1nc(Nc2ccc(C(=O)N3CCOCC3)cc2OC)nc2[nH]cc(C#N)c12 [Example 1, 2-((2-methoxy-4-(morpholine-4-carbonyl)phenyl)amino)-4-(methylamino)-7H-pyrrolo[2,3-d]pyrimidine-5-carbonitrile]",remaining binding at 1 µM,[1],79%
same,remaining binding at 1 µM,[2],69%
same,remaining binding at 1 µM,[3],100%
same,remaining binding at 1 µM,[4],97%
same,remaining binding at 1 µM,[5],100%
same,remaining binding at 1 µM,[6],59%
same,remaining binding at 1 µM,[7],34%
same,remaining binding at 1 µM,[8],77%
same,remaining binding at 1 µM,[9],81%
same,remaining binding at 1 µM,[10],91%
"CC1(Nc2nc(Nc3cnn([C@H]4CCN(C5COC5)C[C@@H]4F)c3Cl)nc3[nH]cc(C#N)c23)CC1 [Example 52, 2-((5-chloro-1-((3S,4S)-3-fluoro-1-(oxetane-3-yl)piperidine-4-yl)-1H-pyrazole-4-yl)amino)((1-methylcyclopropyl)amino)-7H-pyrrolo[2,3-d]pyrimidine-5-carbonitrile]",remaining binding at 1 µM,[1],100%
same,remaining binding at 1 µM,[2],99%
same,remaining binding at 1 µM,[3],84%
same,remaining binding at 1 µM,[4],86%
same,remaining binding at 1 µM,[5],66%
same,remaining binding at 1 µM,[6],24%
same,remaining binding at 1 µM,[7],0.85%
same,remaining binding at 1 µM,[8],0.95%
same,remaining binding at 1 µM,[9],93%
same,remaining binding at 1 µM,[10],0.25%
"CCNc1nc(Nc2ccc(C(=O)N3CCC(N4CCOCC4)CC3)cc2OC)nc2[nH]cc(C(F)(F)F)c12 [Example 104, (4-((4-(ethylamino)-5-(trifluoromethyl)-7H-pyrrolo[2,3-d]pyrimidine-2-yl)amino)-3-methoxyphenyl)(4-morpholinopiperidine-1-yl)methanone]",remaining binding at 1 µM,[1],100%
same,remaining binding at 1 µM,[2],100%
same,remaining binding at 1 µM,[3],99%
same,remaining binding at 1 µM,[4],93%
same,remaining binding at 1 µM,[5],100%
same,remaining binding at 1 µM,[6],73%
same,remaining binding at 1 µM,[7],15%
same,remaining binding at 1 µM,[8],91%
same,remaining binding at 1 µM,[9],100%
same,remaining binding at 1 µM,[10],85%
